Measurements as given in US6403627B1, “Spin trapping pharmaceutical compositions and methods for use thereof” (Oklahoma Medical Research Foundation, priority 1991, dated 2002).

Tests used:
Toxicity tests (LD50) = format: in vivo
Experimental: Exemplary dosages of the parent phenyl t-butyl nitrone administered intravenously range from 0.1 to 10 mg/kg of body weight in animals. […] It is possible to extrapolate from comparative tests using other spin trapping compounds what the effective dosage for these compounds will be.

[1] = tested on: protein oxidation and enzyme activity in aged cells/brain; conditions: as early as seven days following initiation of daily treatment; cited from earlier work
[2] = tested on: protein oxidation and enzyme activity in aged cells/brain; assay: Age-related protein oxidation and enzyme activity after daily administration; format: in vivo; conditions: aging; daily administration for fourteen days
Excerpt: The consequence of this increased level of protein oxidation is an abnormally low level of critical enzymes in the affected cells. While not all cells have been evaluated, it appears from the in vivo data presented in U.S. Ser. No. 07/589,177abandoned on Mar. 5, 1993, and U.S. Ser. No. 07/422,651, now U.S. Pat. No. 5,025,032, and reports of in vitro studies, that most, if not all, cells in the body will undergo abnormally high levels of protein oxidation. Decreases in antioxidant systems and abnormally low levels of mitochondrial function have been described. The protein oxidation is thought to arise from oxygen free radicals, largely generated via a metal catalyzed reaction within the cell. […] Organs for transplantation are obtained from donors. The success of the procedure is determined in part by the age (oxidation) related reduction in organ viability, the amount of time the organ is in preservation solution, and the status of the recipient.

[3] = tested on: oxidation of low density lipoprotein in plasma; assay: Oxidation of lipid in plasma/LDL samples measured as thiobarbituric acid reactive substance (TBAR); format: biochemical; conditions: for % inhibition / Test (TBAR): 0.1 mM PBN, 4° C. for seven weeks; for % inhibition: actual inhibition greater than measured (assay interference by PBN)
Experimental: Diabetic atherosclerosis involves the abnormal and excessive glycation of protein in the vascular wall. As discussed above for diabetic neuropathy, this involves oxygen radical production and consequent further damage to cytosolic proteins. Spin-trapping compounds will prevent this abnormal processing of cellular protein and other cellular constituents. […] Plasma samples were tested for oxidation of lipid measured using thiobarbioturic acid reactive substance (TBAR, nM) and % inhibition of oxidation calculated.

[4] = tested on: free radicals produced by adriamycin in heart, brain and other organs; conditions: brain and other organs of research animals; cited from earlier work

Compound: CC(C)(C)[N+]([O-])=Cc1ccccc1 [PBN, phenyl N-tert-butylnitrone]
- LD50 (Toxicity tests (LD50)): not possible to determine an LD50
- toxicity (Toxicity tests (LD50)): completely innocuous
- enzymatic status of the aged brain [1]: restoring enzymatic levels to near those of the young adult
- abnormally low level of enzyme activity [2]: restored to normal
- level of protein oxidation [2]: decreased
- % inhibition ([3]; NP132 plasma): 18.2%
- Test (TBAR) ([3]; NP132 plasma, control + PBS 0.55): 0.45 nM/ml
- % inhibition ([3]; NP133 LDL): 48.1%
- Test (TBAR) ([3]; NP133 LDL, control + PBS 0.54): 0.28 nM/ml
- % inhibition ([3]; NP134 plasma): 22.2%
- Test (TBAR) ([3]; NP134 plasma, control + PBS 0.18): 0.14 nM/ml
- % inhibition ([3]; NP135 LDL): 66.7%
- Test (TBAR) ([3]; NP135 LDL, control + PBS 0.33): 0.11 nM/ml
- % inhibition ([3]; NP135 plasma): 21.9%
- Test (TBAR) ([3]; NP135 plasma, control + PBS 0.32): 0.25 nM/ml
- oxidation of low density lipoprotein in plasma ([3]; in vitro studies): inhibits or reduces oxidation of low density lipoprotein in plasma
- trapping of free radicals produced by adriamycin [4]: trap the free radicals produced by adriamycin
